Data from ChEMBL document CHEMBL1201862, “PubChem BioAssay data set” (2004).
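Step 1: Grow cells in 96-well plates. Step 2: Expose to compound for 48 hours at 5 concentrations. Step 3: Interpolate endpoints linearly; if unreached, use highest concentration. GI50 is the concentration that inhibits growth by half.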 Active and inactive are the calls of the source. Rule as the data show it: active = GI50 up to about 1.1 µM and inactive = higher.

Experiments:
Assay in all cases: NCI tumour cell line growth inhibition, 48 h
786-0 = test system: 786-0
A498 = test system: A498
ACHN = test system: ACHN
COLO 205 = test system: COLO 205
DU-145 = test system: DU-145
KM12 = test system: KM12
LOX IMVI = test system: LOX IMVI
MCF7 = test system: MCF7
MDA-MB-231 = test system: MDA-MB-231
MDA-MB-435 = test system: MDA-MB-435
MDA-N = test system: MDA-N
NCI-H226 = test system: NCI-H226
OVCAR-5 = test system: OVCAR-5
RXF 393 = test system: RXF 393
SF-268 = test system: SF-268
SK-MEL-28 = test system: SK-MEL-28
SK-MEL-5 = test system: SK-MEL-5
SR = test system: SR
U-251 = test system: U-251
NCI/ADR-RES = test system: NCI/ADR-RES

Row | SMILES | GI50 (786-0) | GI50 (A498) | GI50 (ACHN) | GI50 (COLO 205) | GI50 (DU-145) | GI50 (KM12) | GI50 (LOX IMVI) | GI50 (MCF7) | GI50 (MDA-MB-231) | GI50 (MDA-MB-435) | GI50 (MDA-N) | GI50 (NCI-H226) | GI50 (OVCAR-5) | GI50 (RXF 393) | GI50 (SF-268) | GI50 (SK-MEL-28) | GI50 (SK-MEL-5) | GI50 (SR) | GI50 (U-251) | GI50 (NCI/ADR-RES)
1 | O=C1/C(=C\c2ccccc2)CN(C(=O)CCN2CCCCC2)C/C1=C/c1ccccc1 | 1.3 µM (inactive) | 2.69 µM (inactive) | 1.95 µM (inactive) | 1.76 µM (inactive) | 5.21 µM (inactive) | 0.379 µM (active) | 0.283 µM (active) | 0.415 µM (active) | 1.48 µM (inactive) | 2.05 µM (inactive) | 1.19 µM (inactive) | 6.11 µM (inactive) | 1.72 µM (inactive) | 1.95 µM (inactive) | 1.78 µM (inactive) | 1.97 µM (inactive) | 1.17 µM (inactive) | 0.315 µM (active) | 0.632 µM (active) | –
2 | Cc1ccc(C)c2c1C/C(=C\c1ccccc1C(=O)O)C2=O | > 100 µM (inactive) | > 100 µM (inactive) | > 100 µM (inactive) | > 100 µM (inactive) | 97.3 µM (inactive) | > 100 µM (inactive) | 54.2 µM (inactive) | > 100 µM (inactive) | – | 67.5 µM (inactive) | 87.3 µM (inactive) | 20.8 µM (inactive) | > 100 µM (inactive) | > 100 µM (inactive) | 89.3 µM (inactive) | > 100 µM (inactive) | 42.7 µM (inactive) | 36.1 µM (inactive) | 88.3 µM (inactive) | > 100 µM (inactive)
3 | CSc1cc(Br)ccc1-n1c(C(=O)c2ccccc2)c(SC)n(-c2ccccc2)c1=O | > 100 µM (inactive) | – | > 100 µM (inactive) | 47.2 µM (inactive) | – | > 100 µM (inactive) | > 100 µM (inactive) | 63.1 µM (inactive) | 39.8 µM (inactive) | 7.59 µM (inactive) | 18.5 µM (inactive) | > 100 µM (inactive) | > 100 µM (inactive) | – | > 100 µM (inactive) | > 100 µM (inactive) | 67.8 µM (inactive) | 74.5 µM (inactive) | > 100 µM (inactive) | 53.8 µM (inactive)
4 | O=C1c2cccc(NCCNCCO)c2C(=O)c2cccc(NCCNCCO)c21 | 0.665 µM (active) | 2.48 µM (inactive) | 2.55 µM (inactive) | 0.661 µM (active) | 0.612 µM (active) | 0.792 µM (active) | 0.272 µM (active) | 0.39 µM (active) | – | 1.25 µM (inactive) | 0.215 µM (active) | 0.998 µM (active) | 1.53 µM (inactive) | 1.59 µM (inactive) | 0.518 µM (active) | 1.71 µM (inactive) | 1.69 µM (inactive) | 0.519 µM (active) | 0.792 µM (active) | 10.9 µM (inactive)
5 | O=C1CC(CC(O)C(O)CO)CC(=O)N1 (stereo unspecified) | > 100 µM (inactive) | > 100 µM (inactive) | > 100 µM (inactive) | – | > 100 µM (inactive) | > 100 µM (inactive) | > 100 µM (inactive) | > 100 µM (inactive) | > 100 µM (inactive) | > 100 µM (inactive) | > 100 µM (inactive) | > 100 µM (inactive) | – | – | > 100 µM (inactive) | > 100 µM (inactive) | > 100 µM (inactive) | – | > 100 µM (inactive) | > 100 µM (inactive)
6 | c1ccc(P(CCP(c2ccccn2)c2ccccn2)c2ccccc2)cc1 | 11.9 µM (inactive) | 12.8 µM (inactive) | 23.3 µM (inactive) | 0.341 µM (active) | 1.19 µM (inactive) | 0.286 µM (active) | 0.038 µM (active) | 0.0261 µM (active) | – | 12.1 µM (inactive) | 4.57 µM (inactive) | 45.3 µM (inactive) | > 75.9 µM (inactive) | 19.8 µM (inactive) | – | 64 µM (inactive) | 21.5 µM (inactive) | 19.4 µM (inactive) | 0.0578 µM (active) | > 100 µM (inactive)
7 | N#CSC/C(Cl)=C/Cl.N#CSC/C(Cl)=C\Cl | > 100 µM (inactive) | > 100 µM (inactive) | > 100 µM (inactive) | > 100 µM (inactive) | > 100 µM (inactive) | > 100 µM (inactive) | 20.4 µM (inactive) | – | > 100 µM (inactive) | > 100 µM (inactive) | > 100 µM (inactive) | > 100 µM (inactive) | 63.2 µM (inactive) | > 100 µM (inactive) | > 100 µM (inactive) | > 100 µM (inactive) | > 100 µM (inactive) | > 100 µM (inactive) | > 100 µM (inactive) | > 100 µM (inactive)
8 | C[C@]12CC/C(=N\OCCN3CCCC3)C=C1CCC1C2CC[C@@]2(C)C1CC[C@]2(C)O (stereo partly specified) | 4.43 µM (inactive) | 0.647 µM (active) | 11.1 µM (inactive) | 3.4 µM (inactive) | 11.3 µM (inactive) | 5.09 µM (inactive) | 4.33 µM (inactive) | 5.37 µM (inactive) | 16.6 µM (inactive) | 2.28 µM (inactive) | 2.56 µM (inactive) | 2.9 µM (inactive) | 33.3 µM (inactive) | 19.3 µM (inactive) | 13.3 µM (inactive) | – | 14.8 µM (inactive) | – | 7.11 µM (inactive) | 3.6 µM (inactive)
9 | CN(CCNC(=O)c1nn(-c2ccccc2)c2c1Cc1ccccc1-2)CCNC(=O)c1nn(-c2ccccc2)c2c1Cc1ccccc1-2 | 1.66 µM (inactive) | 1.84 µM (inactive) | 1.74 µM (inactive) | 1.79 µM (inactive) | 2.59 µM (inactive) | 1.79 µM (inactive) | 1.74 µM (inactive) | 1.64 µM (inactive) | 1.82 µM (inactive) | 1.61 µM (inactive) | 1.73 µM (inactive) | – | 2.37 µM (inactive) | 1.57 µM (inactive) | 2.02 µM (inactive) | 1.69 µM (inactive) | 1.79 µM (inactive) | – | 1.71 µM (inactive) | 2.17 µM (inactive)
10 | O=C1NC2=NOC(=O)NC2=NO1 | > 200 µM (inactive) | > 200 µM (inactive) | > 200 µM (inactive) | > 200 µM (inactive) | > 200 µM (inactive) | > 200 µM (inactive) | > 200 µM (inactive) | > 200 µM (inactive) | > 200 µM (inactive) | > 200 µM (inactive) | > 200 µM (inactive) | > 200 µM (inactive) | > 200 µM (inactive) | > 200 µM (inactive) | > 200 µM (inactive) | > 200 µM (inactive) | > 200 µM (inactive) | – | > 200 µM (inactive) | > 200 µM (inactive)
11 | O=C1c2cccc(NCCCNCCO)c2C(=O)c2cccc(NCCCNCCO)c21 | 2.08 µM (inactive) | 2.8 µM (inactive) | 2.08 µM (inactive) | 1.8 µM (inactive) | 2.62 µM (inactive) | 2.12 µM (inactive) | 2.29 µM (inactive) | 0.325 µM (active) | 1.42 µM (inactive) | 1.67 µM (inactive) | 1.71 µM (inactive) | – | 2.31 µM (inactive) | 2.13 µM (inactive) | – | 1.83 µM (inactive) | 2 µM (inactive) | – | – | 13.7 µM (inactive)
12 | CC(=O)O[C@H]1C(=O)[C@@]2(C)[C@H]([C@H](OC(=O)C3CCCCC3)[C@]3(O)C[C@H](OC(=O)[C@H](O)[C@@H](NC(=O)OC(C)(C)C)c4ccccc4)C(C)=C1C3(C)C)[C@]1(OC(C)=O)CO[C@@H]1C[C@@H]2O | 0.0176 µM (active) | – | 0.413 µM (active) | 0.013 µM (active) | 0.0867 µM (active) | 0.00731 µM (active) | 0.00817 µM (active) | 0.00259 µM (active) | 0.0427 µM (active) | 0.00226 µM (active) | 0.00169 µM (active) | 0.0236 µM (active) | 0.0074 µM (active) | 0.0331 µM (active) | 0.202 µM (active) | – | 0.0107 µM (active) | 0.00542 µM (active) | 0.0137 µM (active) | > 3.03 µM (inactive)
13 | CC(C)(C)OC(=O)c1ccc(NCC2=C(Br)C(=O)C=CC2=O)cc1 | 17.5 µM (inactive) | – | 17.9 µM (inactive) | 18.2 µM (inactive) | 35.7 µM (inactive) | 33.3 µM (inactive) | 14.7 µM (inactive) | 19.3 µM (inactive) | 19.1 µM (inactive) | 18.8 µM (inactive) | 20 µM (inactive) | 22.1 µM (inactive) | 23.1 µM (inactive) | 13.7 µM (inactive) | 19.6 µM (inactive) | 19.6 µM (inactive) | 15.9 µM (inactive) | 11.7 µM (inactive) | 22.3 µM (inactive) | 20.1 µM (inactive)
14 | N#CCC1COc2ccccc2O1 (stereo unspecified) | > 10 µM (inactive) | – | > 10 µM (inactive) | > 10 µM (inactive) | > 10 µM (inactive) | > 10 µM (inactive) | > 10 µM (inactive) | > 10 µM (inactive) | > 10 µM (inactive) | > 10 µM (inactive) | > 10 µM (inactive) | – | > 10 µM (inactive) | – | > 10 µM (inactive) | > 10 µM (inactive) | > 10 µM (inactive) | > 10 µM (inactive) | > 10 µM (inactive) | > 10 µM (inactive)
15 | CCSC1SC(c2ccccc2)(c2ccccc2)c2ccccc21 (stereo unspecified) | 43.4 µM (inactive) | 22.5 µM (inactive) | 44.7 µM (inactive) | 35 µM (inactive) | 64.7 µM (inactive) | 38.5 µM (inactive) | 45.1 µM (inactive) | 33.7 µM (inactive) | 73.1 µM (inactive) | 33.7 µM (inactive) | 35.9 µM (inactive) | 31.6 µM (inactive) | 45.4 µM (inactive) | 19.5 µM (inactive) | 93.1 µM (inactive) | 79.8 µM (inactive) | 26.4 µM (inactive) | – | 92.3 µM (inactive) | 43.2 µM (inactive)
